# Source: a melting point compilation (Tetko et al.; mined from patent text by program, amines drawn as free bases though some values may be those of a salt)
row,melting point,SMILES
1,252 to 254 °C,C#Cc1ccc(-c2c(C)n[nH]c(=O)c2-c2c(F)cc(F)cc2F)cc1
2,150 to 152 °C,O=C(O)C(=O)CC(=O)c1cccn1Cc1ccccc1-c1ccccc1
3,88 to 92 °C,CCCCCCCCCCOc1ccc(C(O)C(O)c2ccc(C(=O)OC)cc2)nc1CCC(=O)OC (mixture of isomers)
4,142 °C,FC(F)(F)c1cc(C(F)(F)F)c2nc(N3CCN(c4ncccc4C(F)(F)F)CC3)[nH]c2c1
5,156 °C,COCC(=O)C1CCC2C3CCC4CC(=O)CCC4(C)C3CCC12C (stereo unspecified)
6,130 to 136 °C,CC(C)(C)c1cc(CCC(=O)OC2CC(C)(C)N(OC3CCCCC3)C(C)(C)C2)cc(-n2nc3ccc(Cl)cc3n2)c1O
7,105 to 108 °C,CS(=O)c1ccc(OCc2ccccc2)c(CCCc2ccc(C(=O)NCCO)cc2)c1 (stereo unspecified)
8,150 °C,N#Cc1coc2c(Cl)cc(Cl)cc2c1=O
9,75 to 77 °C,CCOc1ccc(N=Cc2cc(OC)c(OC)c(OC)c2)cc1
10,46 to 48 °C,COCCOC/C(=C\S(=O)(=O)c1ccccc1)C(=O)OC(C)(C)C
11,50 to 51 °C,CCCCCCCC1OC1CO (stereo unspecified)
12,179 to 182 °C,Cc1cc(C)n(-c2ncc(C)c(Nc3ccc(Cl)cc3)n2)n1
13,66 to 69 °C,OCCCc1cccc2ccncc12
14,179 to 180 °C,CCOCc1nc2c(N)nc(C)c(C)c2n1CCCNC(=O)C(C)C
15,84 to 85 °C,COC(=O)C(=O)c1ccc(OC/C=C/c2ccc(F)cc2)cc1
16,86 to 87 °C,Cc1ccc(C(=O)NCCCSc2ccncc2)s1
17,> 250 °C,Nc1cc2c(=O)cc(C(=O)O)[nH]c2ccc1=O
18,233 to 234 °C,O=C(O)c1cnc(-c2ccc(Cl)cc2)s1
19,197 to 199 °C,CCC1(c2cccs2)OCC(=O)Nc2ccc(-c3ccc(F)c(C#N)c3)cc21 (stereo unspecified)
20,100 to 101 °C,N#CC[C@H]1CCn2c(cc3ccccc32)C1
21,105 to 107 °C,CCC1=Nc2c(C)nn(C)c2C2=NCC(C)N12 (stereo unspecified)
22,245 to 247 °C,Cc1ccc(Oc2nc3ccccc3o2)c(=S)n1C
23,125 to 137 °C,O=C(Nc1cccc(Cl)c1)ONC1C=NC(c2ccccc2Cl)=c2cc(Cl)ccc2=N1 (stereo unspecified)
24,111 to 116 °C,CN(C(=S)SC(C[N+](=O)[O-])c1ccccc1)c1ccccc1 (stereo unspecified)

row,melting point,SMILES
1,107 to 108 °C,CCSc1cc(C)nc(SCC)c1NC(=O)CN1CCN(CCSc2nc3cccc(C(F)(F)F)c3o2)CC1
2,93 to 94 °C,CCOC(=O)c1c(C(C)(C)C)oc(-c2ccccc2)c1-c1ccc(F)cc1
3,202 °C,CCCNC(=O)c1ccccc1C(c1ccc(O)cc1)c1ccc(O)cc1
4,199 to 201 °C,CC(C)=CCN1CCN(CCC(=O)N2c3ccccc3C(=O)Nc3cccnc32)CC1
5,41 to 44 °C,COCn1cnc(Cl)c1Cl
6,59 to 63 °C,CCOC(=O)C1=Cc2cc(-c3ccc(OC(F)(F)F)cc3)ccc2OCC1
7,193 to 194 °C,Cn1ccnc1N1CCN(c2ccc([N+](=O)[O-])cc2)CC1
8,151 to 152 °C,Cc1cc(NCCNCC(O)COc2ccccc2)c2ccccc2n1 (stereo unspecified)
9,192 °C,COc1cc(C(O)CS(C)(=O)=O)cc(OC)c1-n1cccc1 (stereo unspecified)
10,> 250 °C,Cn1ncc(C(=O)N2CCS(=O)(=O)CC2)c1C(=O)Nc1ccn2nc(-c3ccccc3)nc2c1
11,73 to 76 °C,COC(=O)c1c(-c2ccc(Cl)cc2)ccnc1Br
12,326 to 330 °C,O=C(O)c1cc(Sc2nc3cc(Cl)ccc3[nH]2)c2[nH]c(=O)[nH]c2c1
13,150 °C,COc1ccc2[nH]cc(C(C)N3CCCCC3=O)c2c1 (stereo unspecified)
14,106 to 110 °C,CNCC(=O)N1c2ccccc2N2CCc3cccc(c32)C1C (stereo unspecified)
15,165 to 168 °C,CC(C)(C)c1cc2c(c(C(C)(C)C)c1)OC(=O)C2=O
16,181 to 185 °C,O=C(O)COc1cc2c(c(Cl)c1Cl)C(=O)C(c1ccccc1)C2 (stereo unspecified)
17,68 to 70 °C,CCc1nc(Cl)c(C(N)=O)n1Cc1ccc2oc(-c3ccccc3NS(=O)(=O)C(F)(F)F)c(Br)c2c1
18,125 to 126 °C,CCN1C(=O)CC2(CC(=O)N(Cc3ccccc3)C2)C1=O (stereo unspecified)
19,247 to 248 °C,C[C@]12CCC(=O)N[C@@H]1CCc1cc(-c3cccc4ccccc34)ccc12
20,133 to 134 °C,COC(=O)/C(=N\OC1(C(=O)O)CCC1)c1ccco1
21,178 to 180 °C,N#CC=C1OC(=O)c2ccccc21
22,81 to 83 °C,COC(=O)COc1ccc(C(=O)C(C)N2CCN(c3ccncc3)CC2)cc1 (racemic)
23,130 °C,COC(=O)c1c2ccccc2nc2ccc(Cl)cc12
24,215 to 217 °C,CCc1nc2cc(/C=C/C(=O)NO)ccc2c(=O)n1CCc1ccc(OC)cc1

row,melting point,SMILES
1,145 to 146 °C,O=[N+]([O-])c1ccc(N2CCN(Cc3ccccc3)CC2)cc1CS(=O)(=O)c1ccccc1
2,198 to 200 °C,OC1CSC(Oc2cnc(Cl)c(F)c2)C(O)C1O (stereo unspecified)
3,203 to 208 °C,CCCn1c(COCC)nc2c(N)nc3ccc(OCCNC(=O)N4CCOCC4)cc3c21
4,156 to 157 °C,CCCC1=C(C(=O)OCC)C(c2ccccc2Cl)c2cn(C(=O)Oc3ccccc3)nc2N1 (stereo unspecified)
5,142 °C,O=C(O)C1Sc2ccccc2-c2[nH]c3ccccc3c21 (stereo unspecified)
6,> 230 °C,CCOC(=O)c1cc(-c2csc(-c3ccnc(N(C)C)c3)n2)c(=O)[nH]c1C(C)C
7,66 °C,COC(=O)CC(=O)c1cncc(OC)n1
8,265 to 267 °C,O=c1[nH]c2cc(-c3ccncc3)ccc2c(=O)o1
9,151 to 154 °C,CN(C)CCc1cccc2ccc(-c3ccccc3CNS(C)(=O)=O)cc12
10,138 to 139 °C,O=C(O)CCCN1C(=O)C(c2ccccc2)SC1=S (stereo unspecified)
11,188 to 190 °C,CCOC(=O)c1cc(-n2c(=O)c3c(n(C)c2=O)CCC3)ccc1[N+](=O)[O-]
12,235 to 237 °C,N#Cc1ccc2c3ccc(C#N)c4c(C#N)ccc(c5ccc(Br)c1c52)c43
13,234 to 235 °C,O=C(Nc1cccc2c(=O)cc(-c3nnn[nH]3)oc12)c1ccc2c(c1)CC(CCCc1ccccc1)O2 (stereo unspecified)
14,200 °C,CCCc1nc(C)nc(O)c1Cc1ccc([N+](=O)[O-])cc1
15,59 to 62 °C,CCCCCCCCCCCCCCc1cc(C(=O)OCC)c[nH]1
16,260 °C,O=C(O)C=CC=CC=CC1=Cc2cc(-c3ccccc3)ccc2OC1
17,73 to 74 °C,Cc1ccc(C(=O)OC2CCN(Cc3ccccc3)CC2)cc1
18,121 to 124 °C,CCCN(O)CCc1ccc2c(c1)C(=O)c1ccccc1CO2
19,168 to 175 °C,O=[N+]([O-])c1ccc(C=CS(=O)(=O)N=C(Cl)c2ccccc2)cc1
20,180 °C,Clc1nc2nc(Cl)sc2s1
21,188 to 190 °C,CC(=O)N1CC(CCN2CCC(c3c[nH]c4cc(Cl)ccc34)CC2)c2ccccc21 (stereo unspecified)
22,112 to 115 °C,CCOC(=O)c1cnc2c(cnn2CC)c1OCC
23,203 to 204 °C,O=C(O)c1c(-c2cccc(Cl)c2)csc1N1C(=O)c2ccccc2C1=O
24,216 to 218 °C,COc1ccc(Cc2cc3ccccc3c(=O)[nH]2)cc1

row,melting point,SMILES
1,159 to 161 °C,CC(=O)Oc1ccccc1C(=O)Nc1ccc(-n2nc(C(F)(F)F)cc2C(F)(F)F)cc1
2,125 to 126 °C,O=C1N(Cc2ncccc2F)c2ccccc2C12COc1cc3c(cc12)OCCO3 (stereo unspecified)
3,206 to 207 °C,Cc1cc(Cl)cc(NC(=O)C=NO)c1
4,167 to 169 °C,C=C(C)C(=O)NCCNC(=O)c1ccc2ccccc2c1O
5,266 to 267 °C,NC(=O)c1cccc2[nH]c(-c3ccc(O)cc3)nc12
6,175 °C,CC(C)c1cccc(S(=O)(=O)n2c(Cc3ccc(C(=O)O)cc3)cc3cc(C(F)(F)F)ccc32)c1
7,128 to 130 °C,CC(=O)OC1CC2=CC=C3C4CCC(C(C)C=CC(C)C(C)C)C4(C)CCC3C2(C)C(OC(C)=O)C1 (stereo unspecified)
8,106 to 107 °C,CC(C)(C)ON=C(C(=O)O)c1cccs1
9,164 °C,O=C(N[C@H]1CC[C@H](CCN2CCC(c3cccc4c3CCO4)CC2)CC1)C1(O)CC1
10,154 to 158 °C,O=C(O)CCCCCCCC(=O)c1c(-c2ccc(O)cc2)sc2cc(O)ccc12
11,162 to 163 °C,O=C1c2ccccc2C(=O)N1CC(Br)(CBr)c1ccccc1 (stereo unspecified)
12,176 to 177 °C,CC(=O)C1=CCC2C3CCC4CC=CCC4(C)C3C(=O)CC12C (stereo unspecified)
13,135 to 140 °C,CC1=NOC(c2c(S(C)(=O)=O)ccc(C(=O)C3=C(O)CCCC3=O)c2C)C1 (stereo unspecified)
14,160 to 180 °C,Cc1ccc(S(=O)(=O)Nc2cc(C(C)(C)C)c(O)c(C(C)(C)C)c2)cc1
15,219 to 220 °C,CCCc1nnc2c(=O)n(C)c3ccc(OC)cc3n12
16,176 °C,Cc1cccc(NC(=O)NCC(=O)N(c2ccccc2)C(C(=O)OC(C)(C)C)c2ccc(Cl)c(Cl)c2)c1 (racemic)
17,31 °C,c1ccc(C2CCCC2OCC2CO2)cc1 (stereo unspecified)
18,145 to 146 °C,Nc1ccccc1C(=O)c1ccccn1
19,245 to 247 °C,NS(=O)(=O)c1ccc(-c2[nH]c3ccc(Cl)cc3c2-c2ccc(Cl)cc2)cc1
20,197 to 200 °C,CN1CCN(c2ccc(-c3cnn4c(N)c(-c5ccccc5Cl)cnc34)cc2)CC1
21,104 to 105 °C,CC(=O)c1ccc2c(c1)C(C(Cl)(Cl)Cl)OC(C(Cl)(Cl)Cl)O2 (stereo unspecified)

row,SMILES,melting point
1,CC(C)CN1C(=O)[C@@H](CC(=O)O)N[C@H](c2ccccc2Cl)c2cc(Cl)ccc21,184 to 188 °C
2,CC1(C)CCC(C)(C)c2cc(-c3cc(-c4ccc(C=O)cc4)on3)ccc21,179 to 180 °C
3,CN(C)Cc1nnc(CO)n1-c1ccc(Cl)cc1C(=O)c1ccccc1Cl,138 to 141 °C
4,O=C(Cc1ccc(Cl)c(Cl)c1)N1CCCC(N2CCCC2)C1 (stereo unspecified),134 to 135 °C
5,Cc1ccc(Cn2nc(C(=O)O)c(C)c2-c2ccc(Cl)cc2)cc1Cl,162 °C
6,CCc1cc(CNc2nc3ccccc3o2)c(=S)[nH]c1C,238 to 240 °C
7,COC(=O)c1ccc(-c2ccc(-c3ccc4c(c3)C(C)(C)CCC4(C)C)n2C)cc1,104 to 105 °C
8,Cc1ncc2n1-c1ccc(C(C)O)cc1C(c1ccccc1)=NC2 (stereo unspecified),223 to 225 °C
